In test [1] the target is D5 dopaminergic receptor (Homo sapiens, UniProt P21918). In words: PDSP radioligand binding, D5. The settings on record: read-out: % inhibition at 10 µM; single concentration 10 µM.
The target of test [2] is D2 dopaminergic receptor (Homo sapiens, UniProt P14416). In words: PDSP radioligand binding, D2. Conditions: read-out: % inhibition at 10 µM; single concentration 10 µM.
In test [3] the target is H1 histaminergic receptor (Homo sapiens, UniProt P35367). In words: PDSP radioligand binding, H1. The settings on record: read-out: % inhibition at 10 µM; single concentration 10 µM.
In test [4] the target is M3 muscarinic acetylcholine receptor (Homo sapiens, UniProt P20309). Kind of test: PDSP radioligand binding, M3. The settings on record: read-out: % inhibition at 10 µM; single concentration 10 µM.
The target of test [5] is 5HT1E serotonergic receptor (Homo sapiens, UniProt P28566). In words: PDSP radioligand binding, 5HT1E. The settings on record: read-out: % inhibition at 10 µM; single concentration 10 µM.
In test [6] the target is T1, α1B adrenergic receptor (Homo sapiens, UniProt P35368).
T1 sequence (P35368 1-520): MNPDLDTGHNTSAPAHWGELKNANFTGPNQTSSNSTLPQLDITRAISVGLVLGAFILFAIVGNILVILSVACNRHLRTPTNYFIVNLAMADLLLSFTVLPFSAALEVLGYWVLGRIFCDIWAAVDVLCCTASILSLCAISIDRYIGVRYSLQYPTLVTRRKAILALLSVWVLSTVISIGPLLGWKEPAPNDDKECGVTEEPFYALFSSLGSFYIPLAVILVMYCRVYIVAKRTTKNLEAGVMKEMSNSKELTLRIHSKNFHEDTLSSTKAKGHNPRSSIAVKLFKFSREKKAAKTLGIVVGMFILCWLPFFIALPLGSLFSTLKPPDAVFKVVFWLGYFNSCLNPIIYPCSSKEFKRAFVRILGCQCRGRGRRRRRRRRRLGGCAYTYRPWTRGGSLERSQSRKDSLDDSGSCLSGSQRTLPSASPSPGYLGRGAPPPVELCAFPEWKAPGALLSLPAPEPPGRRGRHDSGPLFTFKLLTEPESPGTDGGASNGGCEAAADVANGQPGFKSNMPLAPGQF
In words: PDSP radioligand binding, α1B. Conditions: read-out: % inhibition at 10 µM; single concentration 10 µM.

For test [7], the target named is T2, α1D adrenergic receptor (Homo sapiens, UniProt P25100).
T2 sequence (P25100 1-572): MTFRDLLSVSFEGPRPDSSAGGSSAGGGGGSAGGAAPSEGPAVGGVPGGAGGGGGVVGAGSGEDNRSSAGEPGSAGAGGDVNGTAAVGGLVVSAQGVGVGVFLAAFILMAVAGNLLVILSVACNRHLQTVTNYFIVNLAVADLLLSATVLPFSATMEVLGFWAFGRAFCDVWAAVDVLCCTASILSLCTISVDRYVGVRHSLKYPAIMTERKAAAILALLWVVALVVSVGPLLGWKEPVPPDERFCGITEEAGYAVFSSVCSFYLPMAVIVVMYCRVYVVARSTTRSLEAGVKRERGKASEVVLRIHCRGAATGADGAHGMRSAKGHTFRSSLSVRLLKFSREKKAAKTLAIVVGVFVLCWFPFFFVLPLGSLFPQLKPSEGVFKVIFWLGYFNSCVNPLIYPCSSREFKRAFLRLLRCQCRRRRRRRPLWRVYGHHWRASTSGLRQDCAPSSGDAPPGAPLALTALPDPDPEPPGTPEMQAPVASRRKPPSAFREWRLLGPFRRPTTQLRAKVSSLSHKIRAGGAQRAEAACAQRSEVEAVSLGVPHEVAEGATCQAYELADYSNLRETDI
Kind of test: PDSP radioligand binding, α1D. The settings on record: read-out: % inhibition at 10 µM; single concentration 10 µM.

Test [8] concerns GABAA receptor. In words: PDSP radioligand binding, GABAA. The settings on record: single concentration 10 µM.
Test [9] addresses peripheral benzodiazepine receptor (PBR) (Rattus norvegicus, UniProt P16257). Kind of test: PDSP radioligand binding, PBR. The settings on record: read-out: % inhibition at 10 µM; single concentration 10 µM.
The target in test [10] is T3, α1A adrenergic receptor (Homo sapiens, UniProt P35348).
T3 sequence (P35348 1-466): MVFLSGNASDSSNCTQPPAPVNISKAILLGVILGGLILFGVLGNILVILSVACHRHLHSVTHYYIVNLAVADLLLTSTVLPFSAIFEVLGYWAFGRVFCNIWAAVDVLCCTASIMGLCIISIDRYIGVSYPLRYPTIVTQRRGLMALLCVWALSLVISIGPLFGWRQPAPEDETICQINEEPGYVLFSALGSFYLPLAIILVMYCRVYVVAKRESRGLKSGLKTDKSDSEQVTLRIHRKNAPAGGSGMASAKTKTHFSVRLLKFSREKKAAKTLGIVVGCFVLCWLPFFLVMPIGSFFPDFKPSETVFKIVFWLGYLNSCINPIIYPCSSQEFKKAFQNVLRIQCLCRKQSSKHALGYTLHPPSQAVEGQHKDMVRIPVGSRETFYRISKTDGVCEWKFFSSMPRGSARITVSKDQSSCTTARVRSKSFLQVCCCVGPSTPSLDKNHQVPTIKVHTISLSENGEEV
Kind of test: PDSP radioligand binding, α1A. Conditions: read-out: % inhibition at 10 µM; single concentration 10 µM.

Test [11] concerns the target T4, 5HT3 ion channels (Homo sapiens, UniProt P46098).
T4 sequence (P46098 24-478): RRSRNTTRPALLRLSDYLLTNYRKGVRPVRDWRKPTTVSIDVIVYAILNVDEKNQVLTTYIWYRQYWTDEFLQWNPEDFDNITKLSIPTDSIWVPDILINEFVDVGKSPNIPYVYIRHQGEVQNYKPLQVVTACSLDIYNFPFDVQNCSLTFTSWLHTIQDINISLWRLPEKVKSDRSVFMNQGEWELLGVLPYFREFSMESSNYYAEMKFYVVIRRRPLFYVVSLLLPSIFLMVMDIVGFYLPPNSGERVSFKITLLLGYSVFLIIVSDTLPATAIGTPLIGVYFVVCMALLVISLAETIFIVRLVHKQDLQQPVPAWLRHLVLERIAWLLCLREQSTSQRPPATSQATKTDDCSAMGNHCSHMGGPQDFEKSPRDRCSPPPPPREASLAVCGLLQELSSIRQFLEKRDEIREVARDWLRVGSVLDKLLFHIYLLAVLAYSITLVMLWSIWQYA
In words: PDSP radioligand binding, 5HT3 ion channel. The settings on record: read-out: % inhibition at 10 µM; single concentration 10 µM.

Test [12] deals with 5HT1B serotonergic receptor (Homo sapiens, UniProt P28222). Kind of test: PDSP radioligand binding, 5HT1B. Conditions: read-out: % inhibition at 10 µM; single concentration 10 µM.

SMILES strings stand for the structures.

Sequence of D5 dopaminergic receptor (P21918 whole entry): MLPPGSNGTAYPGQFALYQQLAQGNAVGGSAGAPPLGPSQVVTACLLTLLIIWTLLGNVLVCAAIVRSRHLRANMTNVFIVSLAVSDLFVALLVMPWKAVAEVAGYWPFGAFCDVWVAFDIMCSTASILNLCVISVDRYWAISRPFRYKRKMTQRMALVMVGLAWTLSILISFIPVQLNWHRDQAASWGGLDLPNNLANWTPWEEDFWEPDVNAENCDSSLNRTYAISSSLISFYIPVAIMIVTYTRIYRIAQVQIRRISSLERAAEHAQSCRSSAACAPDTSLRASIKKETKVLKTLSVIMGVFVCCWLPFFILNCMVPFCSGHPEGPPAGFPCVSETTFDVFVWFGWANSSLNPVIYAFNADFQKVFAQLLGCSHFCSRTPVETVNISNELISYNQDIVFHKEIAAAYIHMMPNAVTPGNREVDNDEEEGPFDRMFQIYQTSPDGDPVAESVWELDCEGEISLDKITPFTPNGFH
Sequence of D2 dopaminergic receptor (P14416 whole entry): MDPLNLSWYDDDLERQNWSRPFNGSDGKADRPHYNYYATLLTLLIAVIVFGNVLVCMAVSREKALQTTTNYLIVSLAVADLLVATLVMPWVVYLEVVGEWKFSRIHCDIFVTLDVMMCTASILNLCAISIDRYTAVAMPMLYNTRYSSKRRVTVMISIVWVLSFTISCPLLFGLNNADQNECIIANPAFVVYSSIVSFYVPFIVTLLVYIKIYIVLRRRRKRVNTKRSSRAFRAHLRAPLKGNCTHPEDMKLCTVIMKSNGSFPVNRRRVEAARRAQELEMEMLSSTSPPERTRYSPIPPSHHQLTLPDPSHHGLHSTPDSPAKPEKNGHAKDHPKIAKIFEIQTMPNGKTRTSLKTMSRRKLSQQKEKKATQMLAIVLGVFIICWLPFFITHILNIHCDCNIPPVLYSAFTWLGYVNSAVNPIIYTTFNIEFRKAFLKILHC
Sequence of 5HT1B serotonergic receptor (P28222 whole entry): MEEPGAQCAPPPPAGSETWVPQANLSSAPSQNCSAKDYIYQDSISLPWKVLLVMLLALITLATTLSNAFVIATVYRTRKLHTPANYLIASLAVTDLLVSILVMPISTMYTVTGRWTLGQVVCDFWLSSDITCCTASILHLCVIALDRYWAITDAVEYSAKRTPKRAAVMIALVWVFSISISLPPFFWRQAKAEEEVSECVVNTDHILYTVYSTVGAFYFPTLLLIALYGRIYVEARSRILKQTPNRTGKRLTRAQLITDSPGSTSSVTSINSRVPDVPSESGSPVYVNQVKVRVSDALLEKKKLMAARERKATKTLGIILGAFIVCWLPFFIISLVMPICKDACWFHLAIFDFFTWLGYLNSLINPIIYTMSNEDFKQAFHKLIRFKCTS
Sequence of H1 histaminergic receptor (P35367 whole entry): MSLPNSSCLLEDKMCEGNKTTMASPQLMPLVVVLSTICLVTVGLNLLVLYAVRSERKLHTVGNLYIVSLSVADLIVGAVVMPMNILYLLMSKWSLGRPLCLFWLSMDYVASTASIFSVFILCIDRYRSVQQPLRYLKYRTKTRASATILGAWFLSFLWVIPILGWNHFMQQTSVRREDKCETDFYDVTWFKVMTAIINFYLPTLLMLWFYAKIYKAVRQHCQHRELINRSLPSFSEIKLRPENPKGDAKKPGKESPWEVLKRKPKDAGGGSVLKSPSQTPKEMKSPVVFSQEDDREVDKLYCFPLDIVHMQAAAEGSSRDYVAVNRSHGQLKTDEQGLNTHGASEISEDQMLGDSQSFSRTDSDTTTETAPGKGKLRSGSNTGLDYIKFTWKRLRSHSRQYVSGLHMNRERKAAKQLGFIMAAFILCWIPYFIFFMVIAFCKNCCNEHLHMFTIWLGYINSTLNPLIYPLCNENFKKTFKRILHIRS
Sequence of M3 muscarinic acetylcholine receptor (P20309 whole entry): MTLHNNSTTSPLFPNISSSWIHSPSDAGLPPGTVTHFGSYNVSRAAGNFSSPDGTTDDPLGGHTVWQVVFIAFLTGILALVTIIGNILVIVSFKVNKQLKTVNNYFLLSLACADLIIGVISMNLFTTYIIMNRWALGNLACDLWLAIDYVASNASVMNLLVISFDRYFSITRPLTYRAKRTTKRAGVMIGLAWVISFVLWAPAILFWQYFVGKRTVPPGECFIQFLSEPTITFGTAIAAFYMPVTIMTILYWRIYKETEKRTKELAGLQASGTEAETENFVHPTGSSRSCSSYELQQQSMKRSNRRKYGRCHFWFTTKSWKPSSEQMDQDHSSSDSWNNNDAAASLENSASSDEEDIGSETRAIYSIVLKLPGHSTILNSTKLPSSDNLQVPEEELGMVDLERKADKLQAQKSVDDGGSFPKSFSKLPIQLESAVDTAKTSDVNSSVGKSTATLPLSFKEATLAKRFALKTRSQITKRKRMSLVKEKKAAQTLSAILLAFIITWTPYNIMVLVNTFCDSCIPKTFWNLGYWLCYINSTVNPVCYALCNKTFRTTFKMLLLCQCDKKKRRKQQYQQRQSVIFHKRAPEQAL
Sequence of 5HT1E serotonergic receptor (P28566 whole entry): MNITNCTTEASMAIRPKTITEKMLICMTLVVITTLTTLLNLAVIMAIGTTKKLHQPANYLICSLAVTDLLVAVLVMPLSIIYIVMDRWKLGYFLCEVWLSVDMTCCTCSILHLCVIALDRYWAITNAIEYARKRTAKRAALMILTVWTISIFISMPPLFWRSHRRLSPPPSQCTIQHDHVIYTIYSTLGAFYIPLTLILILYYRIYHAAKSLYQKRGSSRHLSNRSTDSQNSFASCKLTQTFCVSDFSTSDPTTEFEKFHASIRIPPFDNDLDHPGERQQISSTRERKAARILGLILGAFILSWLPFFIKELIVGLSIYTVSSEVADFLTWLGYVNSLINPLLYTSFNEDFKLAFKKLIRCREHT

In the case of `O[C@@H]1[C@H](O)[C@@H]2C[C@@H]2[C@H]1n1cnc2c(NC(C3CC3)C3CC3)nc(Cl)nc21` [Compound 10], the inhibition at 10 µM was determined as 0% in test [1]; 29% in test [2]; 0% in test [3]; 0% in test [4]; 3% in test [5]; 8% in test [6]. For the same compound, the inhibition at 10 µM in [7] was 13%; in test [9], 0%; in test [10], 1%; in test [11] it was 3%; in test [12], 0%. The “% inhibition at 10 µM” value in [8] stood at 11%.

The inhibition is the relative decrease from the control value, in per cent. By % inhibition is commonly meant the relative decrease from the control value, in per cent.
